The record followed here is patent EP4806899A1, “FUSED RING DERIVATIVE, PREPARATION METHOD THEREFOR AND USE THEREOF IN MEDICINE” (Shanghai Qilu Pharmaceutical Research and Development …, priority 2023, dated 2025).

pIC50: −log10 of the molar value.

By pIC50 is commonly meant the IC50 on a negative log10 scale, so that one unit is a factor of ten. Read a low pIC50 as a large IC50. The term Cmax denotes the peak of the concentration-time curve. Usually MRT inf stands for the average time that molecules of a dose stay in the body. What is called half-life is how long it takes for the measured level to halve. A high value points to slow loss.

The target of one data set is T1, human CYP11B1 enzyme (Homo sapiens, UniProt P15538).
T1 construct: the ORF of human CYP11B1 or CYP11B2 were transfected into G402 cells; expressed in transfected cells
T1 sequence (P15538 25-503): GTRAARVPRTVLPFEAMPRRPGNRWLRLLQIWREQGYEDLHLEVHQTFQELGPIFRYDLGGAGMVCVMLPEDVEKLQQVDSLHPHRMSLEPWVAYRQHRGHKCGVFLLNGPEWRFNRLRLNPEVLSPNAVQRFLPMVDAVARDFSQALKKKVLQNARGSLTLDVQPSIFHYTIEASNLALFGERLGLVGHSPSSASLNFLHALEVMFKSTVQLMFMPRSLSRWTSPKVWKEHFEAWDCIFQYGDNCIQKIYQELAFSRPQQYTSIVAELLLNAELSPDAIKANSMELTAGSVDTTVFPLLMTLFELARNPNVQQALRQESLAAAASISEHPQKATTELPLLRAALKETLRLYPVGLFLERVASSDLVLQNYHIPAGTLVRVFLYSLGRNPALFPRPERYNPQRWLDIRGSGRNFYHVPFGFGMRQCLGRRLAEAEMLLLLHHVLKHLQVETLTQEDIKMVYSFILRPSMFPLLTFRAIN
The data set can be described thus: Enzyme inhibition activity assay in G402 cells stably expressing human CYP11B1 (cortisol production from 11-DC, LC/MS). Format: cell-based. The conditions noted are these: 1 µM 11-DC, 16 hours, cortisol detected. The source says: (§1) G402 cells (ATCC, CRL 1440) are epithelioid cells isolated from the kidney of a patient with renal failure and are a type of leiomyoblastoma. For the screening of highly specific CYP11B2 inhibitors, we specifically used G402 cell lines stably expressing human CYP11B2 enzyme or human CYP11B1 enzyme for experimental development.
(§2) Construction of Stably Transfected Cell Lines: Expression plasmids containing suitable promoters, suitable drug resistance markers, and the ORF of human CYP11B1 or CYP11B2 were transfected into G402 cells using standard techniques. The cells were then screened using the specific puromycin resistance marker. Monoclonal cells stably expressing human CYP11B2 were selected for expansion, and 11-deoxycorticosterone (11-DOC) was used as the specific substrate to evaluate enzyme activity based on aldosterone production. Monoclonal cells stably expressing human CYP11B1 were selected for expansion, and 11-deoxycortisol (11-DC) was used as the specific substrate, with cortisol production as the detection target for specific enzyme activity evaluation. The G402 cell lines stably expressing CYP11B1/CYP11B2 were cultured at 37 °C, 5% CO2, 95% air in complete medium (McCoy's 5A + 10% FBS + 1% PS + 0.5 µg/mL puromycin).
(§3) Enzyme Inhibition Activity Assay: CYP11B1 G402/CYP11B2 G402 cells were spread out flatly in cell culture plates. After 24 hours, the medium was changed to an enzyme testing system (DMEM/F12 + 2.5% charcoal-stripped FCS). Small molecule inhibitors at various concentrations were added. After 1 hour, appropriate concentrations of specific substrates (1 µM 11-DOC / 1 µM 11-DC) were added and co-incubated with the cells for 16 hours. Cells were then collected, and specific products were detected using LC/MS methods with an AB SCIEX TRIPLE QUAD 5500+, CTO-40S instrument (CYP11B2 enzyme detecting aldosterone; CYP11B1 enzyme detecting cortisol).
(§4) The IC50 values of the compounds were determined based on the G402 testing system. The dose-dependent inhibition of enzyme activity was calculated by plotting the added inhibitor concentration (x-axis) against the percentage of product inhibitory activity relative to the control group (y-axis) based on product formation at various compound concentrations. The following data were then fitted using the least squares method with XLfit 5.5.0 for a four-parameter logistic curve fit: [formula] • Y-axis: Percentage of product inhibitory activity relative to the control group; • logIC50: IC50 was determined using XLFit.
(§5) The maximum enzyme activity corresponds to the amount of control product steroid/aldosterone in the absence of inhibitor, set as 100%. The minimum enzyme activity corresponds to the amount of reference control product steroid/aldosterone in the presence of inhibitor. Table 3 Inhibitory Activity of the Compounds of the Present Disclosure on CYP11B2 and CYP11B1

The next data set deals with T2, human CYP11B2 enzyme (Homo sapiens, UniProt P19099).
T2 construct: the ORF of human CYP11B1 or CYP11B2 were transfected into G402 cells; expressed in transfected cells
T2 sequence (P19099 25-503): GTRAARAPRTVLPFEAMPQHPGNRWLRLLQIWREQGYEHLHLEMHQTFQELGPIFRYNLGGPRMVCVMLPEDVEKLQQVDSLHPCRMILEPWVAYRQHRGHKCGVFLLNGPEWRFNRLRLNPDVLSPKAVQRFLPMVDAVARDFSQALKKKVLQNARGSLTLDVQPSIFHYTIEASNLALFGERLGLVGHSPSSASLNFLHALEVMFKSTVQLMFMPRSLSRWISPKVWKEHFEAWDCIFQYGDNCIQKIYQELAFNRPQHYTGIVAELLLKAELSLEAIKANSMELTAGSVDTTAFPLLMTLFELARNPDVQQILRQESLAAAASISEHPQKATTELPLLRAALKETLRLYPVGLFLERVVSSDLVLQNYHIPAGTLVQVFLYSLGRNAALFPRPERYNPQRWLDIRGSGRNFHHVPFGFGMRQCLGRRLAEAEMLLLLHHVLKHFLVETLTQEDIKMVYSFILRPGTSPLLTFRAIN
Description: Enzyme inhibition activity assay in G402 cells stably expressing human CYP11B2 (aldosterone production from 11-DOC, LC/MS). Format: cell-based. The note with it: 1 µM 11-DOC, 16 hours, aldosterone detected.
From the text: as §1, §2, §3, §4, §5

The nature of data set [1]: Pharmacokinetic determination in mice after gavage administration (P.O.). It counts as in vivo. The note with it: male, CD-1, mouse, po, 10 mg/kg, plasma. As for the experimental part:
Mice and rats were used as test animals to study the pharmacokinetic behavior of the compounds of the present disclosure in plasma following gavage administration (P.O.). Plasma samples were collected at specific time points, compound concentrations in plasma were detected by LC-MS/MS, and pharmacokinetic parameters were calculated to evaluate the pharmacokinetics.
• Mice, CD-1, male, Zhejiang Vital River Laboratory Animal Technology Co., Ltd. • Rats, Sprague-Dawley, male, Zhejiang Vital River Laboratory Animal Technology Co., Ltd., Shanghai Jihui Experimental Animal Breeding Co., Ltd.
After administration to mice and rats, venous blood samples of 0.03 mL and 0.2 mL, respectively, were collected at 0.0833 (IV), 0.25, 0.5, 1, 2, 4, 8, and 24 hours and placed in EDTA-K2 test tubes. Plasma was separated by centrifugation at 4 °C, 4000 g for 5 minutes and stored at -80 °C.
• 1) 10 µL of plasma sample was precipitated by adding 200 µL of acetonitrile, vortex mixed, and centrifuged for 15 minutes. • 2) The processed supernatant was diluted with water and analyzed by LC/MS/MS to determine the concentration of the test compound.
Pharmacokinetic parameters were calculated using WinNonlin 8.3. The pharmacokinetic parameters for mice P.O. are shown in Table 4, and for rats P.O. in Table 5. Cmax represents the maximum plasma concentration, T1/2 represents the terminal elimination half-life, MRTInf represents the mean residence time, and AUC represents the area under the plasma concentration-time curve. Table 4 Pharmacokinetic Parameters of the Compounds of the Present Disclosure in Mice

`COC(=O)N[C@@H]1CCCc2c(-c3cc(F)c4c(ccc(=O)n4C)c3)cncc21` [Compound A47]: the pIC50 against human CYP11B1 enzyme is 6.14; against human CYP11B2 enzyme, 8.16.
For the compound `CCC(=O)N[C@@H]1CCCc2c(-c3ccc4c(c3)CNC(=O)N4C)cncc21` [Compound C06], the pIC50 on human CYP11B1 enzyme was 5.62; against human CYP11B2 enzyme, 7.51.
The corresponding values for `CNC(=O)N[C@@H]1CCCc2c(-c3ccc4c(c3)OCC(=O)N4C)cncc21` [Compound A24] are 5.81 and 7.93.
The corresponding values for `CN(C)C(=O)N[C@@H]1CCCc2c(-c3ccc4c(c3)COC(=O)N4C)cncc21` [Compound A33] are 6.51 and 8.01.
For `[2H]C([2H])([2H])NC(=O)N[C@@H]1CCCc2c(-c3cc(F)c4c(ccc(=O)n4C)c3)cncc21` [Compound A22], the pIC50 against human CYP11B1 enzyme is 5.92; against human CYP11B2 enzyme, 8.12.
For `[2H]C([2H])([2H])OC(=O)N[C@@H]1CCCc2c(-c3cc(F)c4c(ccc(=O)n4C)c3)cncc21` [Compound A48], in that order: 6.15 and 8.23.
With `C[C@H](F)C(=O)N[C@@H]1CCCc2c(-c3ccc4c(c3)CCC(=O)N4C)cncc21` [Compound D07-P2], the results for the pIC50 against human CYP11B1 enzyme and against human CYP11B2 enzyme were 5.79 and 7.93, respectively.
For `[2H]C([2H])([2H])OC(=O)N[C@@H]1CCCc2c(-c3ccc4c(c3)CCC(=O)N4C)cncc21` [Compound D15], the pIC50 against human CYP11B1 enzyme is 6.89; on human CYP11B2 enzyme, 8.60.
Consider `[2H]C([2H])([2H])NC(=O)N[C@@H]1CCCc2c(-c3ccc4c(c3)OCC(=O)N4C)cncc21` [Compound A25], for which the pIC50 was 5.67 against human CYP11B1 enzyme and 7.83 at human CYP11B2 enzyme.
Turning to `CNC(=O)N[C@@H]1CCCc2c(-c3ccc4c(ccc(=O)n4C)c3)cncc21` [Compound A21], the pIC50 at human CYP11B1 enzyme is 6.13; against human CYP11B2 enzyme, 8.03.
With `COC(=O)N[C@@H]1CCOc2c(-c3cc(F)c4c(ccc(=O)n4C)c3)cncc21` [Compound A49], the pIC50 on human CYP11B1 enzyme was 5.66; against human CYP11B2 enzyme, 7.83.
`[2H]C([2H])([2H])NC(=O)N[C@@H]1CCOc2c(-c3ccc4c(c3)cc(C#N)n4C)cncc21` [Compound A38]: the pIC50 at human CYP11B1 enzyme is 6.55; on human CYP11B2 enzyme, 8.64.
In the case of `CN(C)C(=O)N[C@@H]1CCOc2c(-c3ccc4c(c3)CCC(=O)N4C)cncc21` [Compound A12], the pIC50 is 5.51 at human CYP11B1 enzyme and 7.90 against human CYP11B2 enzyme.
The corresponding values for `CN(C)C(=O)N[C@@H]1CCCc2c(-c3ccc4c(c3)CCC(=O)N4C)cncc21` [Compound D11] are 5.98 and 8.13.
As for `CCC(=O)N[C@@H]1CCCc2c(-c3cnc4c(c3)cc(C#N)n4C)cncc21` [Compound C37], the figures for the pIC50 on human CYP11B1 enzyme and against human CYP11B2 enzyme were 5.77 and 7.94, respectively.
For `[2H]C([2H])([2H])OC(=O)N[C@@H]1CCOc2c(-c3ccc4c(c3)CCC(=O)N4C)cncc21` [Compound A13], the pIC50 is 6.42 at human CYP11B1 enzyme and 8.35 against human CYP11B2 enzyme.
For `[2H]C([2H])([2H])NC(=O)N[C@@H]1CCOc2c(-c3ccc4c(c3)COC(=O)N4C)cncc21` [Compound A18], the pIC50 at human CYP11B1 enzyme is 6.29; on human CYP11B2 enzyme, 8.12.
Regarding `COC(=O)N[C@@H]1CCOc2c(-c3ccc4c(ccc(=O)n4C)c3)cncc21` [Compound A42], the negative logarithm of the IC50 (pIC50) against human CYP11B1 enzyme was 5.77; against human CYP11B2 enzyme, 7.89.
With `[2H]C([2H])([2H])NC(=O)N[C@@H]1CCCc2c(-c3ccc4c(c3)CCC(=O)N4C)cncc21` [Compound D08], the pIC50 was 6.10 on human CYP11B1 enzyme and 7.96 on human CYP11B2 enzyme.
`COCC(=O)N[C@@H]1CCCc2c(-c3ccc4c(c3)CCC(=O)N4C)cncc21` [Compound D06]: the pIC50 against human CYP11B1 enzyme was 6.54; at human CYP11B2 enzyme it was 8.09.
For `[2H]C([2H])([2H])OC(=O)N[C@@H]1CCCc2c(-c3ccc4c(ccc(=O)n4C)c3)cncc21` [Compound A27], the pIC50 on human CYP11B1 enzyme is 6.67; against human CYP11B2 enzyme, 8.30.
In the case of `COC(=O)N[C@@H]1CCOc2c(-c3ccc4c(c3)cc(C#N)n4C)cncc21` [Compound A35], the pIC50 against human CYP11B1 enzyme was 6.74; against human CYP11B2 enzyme, 8.85.
Consider `CN1CCN([C@@H]2CCCc3c(-c4ccc5c(c4)CCC(=O)N5C)cncc32)C1=O` [Compound D10], for which the pIC50 against human CYP11B1 enzyme is 6.56; against human CYP11B2 enzyme, 8.33.
In the case of `CN(C)C(=O)N[C@@H]1CCCc2c(-c3ccc4c(ccc(=O)n4C)c3)cncc21` [Compound A23], the pIC50 at human CYP11B1 enzyme is 5.72; against human CYP11B2 enzyme it was 7.90.
For the compound `[2H]C([2H])([2H])NC(=O)N[C@@H]1CCCc2c(-c3ccc4c(c3)COC(=O)N4C)cncc21` [Compound A16], in data set [1], the Cmax came to 51.7 µM, the MRT inf came to 2.37 h and the half-life was 1.07 h. Also, the AUC(0-t) in data set [1] (read-out: AUC0-24) is 184 µM·h. Further, at human CYP11B2 enzyme, the pIC50 was 8.02.
In the case of `COC(=O)N[C@@H]1CCOc2c(-c3ccc4c(c3)COC(=O)N4C)cncc21` [Compound A43], the pIC50 was 6.24 against human CYP11B1 enzyme and 8.18 against human CYP11B2 enzyme.
The corresponding values for `[2H]C([2H])([2H])OC(=O)N[C@@H]1CCOc2c(-c3ccc4c(ccc(=O)n4C)c3)cncc21` [Compound A39] are 5.84 and 8.00.
For the compound `[2H]C([2H])([2H])OC(=O)N[C@@H]1CCCc2c(-c3cc(Cl)c4c(ccc(=O)n4C)c3)cncc21` [Compound A52], the pIC50 against human CYP11B1 enzyme was 6.10; on human CYP11B2 enzyme, 8.23.
For `[2H]C([2H])([2H])OC(=O)N[C@@H]1CCOc2c(-c3cc(Cl)c4c(ccc(=O)n4C)c3)cncc21` [Compound A54], in that order: 5.78 and 7.87.
